Test results taken from US20260200920A1, “SUBSTITUTED AMINOPYRIDINE COMPOUNDS FOR USE AS AKT1 INHIBITORS” (Atavistik Bio, Inc., priority 2023, published 2026).

How the values were obtained:
[1] = molecular target: T1, human recombinant kinase full-length wildtype AKT1 (Homo sapiens, UniProt P31749); test: AKT1 kinase assay (wildtype, TR-FRET, Lance); assay type: biochemical; details: 0.6 nM wildtype AKT1, 50 nM Ulight-CREBtide, either 50 μM ATP or 2 mM ATP, 60 min at RT
T1 construct: Purified human recombinant kinase full-length wildtype AKT1 was expressed in insect cells; made in house; host or cells: insect cells
Procedure, shortened: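 TR-FRET 665/620 ratio quantified phospho-CREBtide formed by PDPK1-activated full-length human AKT1 (0.6 nM, insect-cell-derived) over 60 min at RT with 50 nM ULight-CREBtide and either 50 μM or 2 mM ATP. Compounds were preincubated 15 min with enzyme; IC50 came from 4-parameter fits of 10-point duplicates.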

[2] = molecular target: T2, human recombinant kinase full-length AKT1 E17K (Homo sapiens, UniProt P31749, E17K); test: AKT1 E17K kinase assay (TR-FRET, Lance); assay type: biochemical; details: 0.6 nM AKT1 E17K, 50 nM Ulight-CREBtide, either 50 μM ATP or 2 mM ATP, 60 min at RT
T2 construct: Purified human recombinant kinase full-length AKT1 E17K was expressed in insect cells; made in house; host or cells: insect cells
Procedure, shortened: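 IC50 came from a 10-point, 4-parameter fit of the 665/620 TR-FRET ratio read with Eu-anti-phospho-CREB (Ser133). Reaction at RT for 60 min after 15 min compound preincubation, using 0.6 nM PDPK1-activated full-length AKT1 E17K (insect-cell), 50 nM Ulight-CREBtide, ATP at 50 μM or 2 mM, HEPES pH 7.5, 1% DMSO.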

T1 sequence (P31749 whole entry): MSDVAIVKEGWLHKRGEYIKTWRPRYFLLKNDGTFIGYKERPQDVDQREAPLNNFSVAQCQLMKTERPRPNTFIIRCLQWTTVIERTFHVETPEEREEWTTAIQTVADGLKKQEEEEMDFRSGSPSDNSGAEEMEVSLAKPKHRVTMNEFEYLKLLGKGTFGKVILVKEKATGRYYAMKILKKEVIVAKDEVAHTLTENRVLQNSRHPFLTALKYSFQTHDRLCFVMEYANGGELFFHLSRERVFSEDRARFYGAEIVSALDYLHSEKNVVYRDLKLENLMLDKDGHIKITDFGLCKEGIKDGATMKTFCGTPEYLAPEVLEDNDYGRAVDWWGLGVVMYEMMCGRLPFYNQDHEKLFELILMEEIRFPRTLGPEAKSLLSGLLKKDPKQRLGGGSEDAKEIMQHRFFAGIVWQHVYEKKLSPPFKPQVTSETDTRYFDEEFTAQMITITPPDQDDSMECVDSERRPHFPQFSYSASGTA
T2 sequence (P31749 whole entry E17K): as the sequence (P31749 whole entry) above, with E17K counted along it

IC50 [1] [nM] | IC50 [2] [nM] | SMILES
< 20000 | 500 to 2000 | CC(C)(C(=O)O)C1CCN(Cc2ccc(-n3c(-c4cccnc4N)nc4ccc(-c5ccccc5)nc43)c(F)c2)C1 (stereo not shown) [Compound I-185]
< 20000 | ≥ 2000 | CNC(=O)[C@H]1CC[C@H](N(C)Cc2ccc(-n3c(-c4cccnc4N)nc4ccc(-c5ccccc5)nc43)cc2)CC1 [Compound I-186, trans-4-((4-(2-(2-aminopyridin-3-yl)-5-phenyl-3H-imidazo[4,5-b]pyridin-3-yl)benzyl)(methyl)amino)-N-methylcyclohexane-1-carboxamide]
< 20000 | ≥ 2000 | CN(Cc1ccc(-n2c(-c3cccnc3N)nc3ccc(-c4ccccc4)nc32)cc1)[C@H]1CC[C@H](C(N)=O)CC1 [Compound I-187, trans-4-((4-(2-(2-aminopyridin-3-yl)-5-phenyl-3H-imidazo[4,5-b]pyridin-3-yl)benzyl)(methyl)amino)cyclohexane-1-carboxamide]
< 20000 | 500 to 2000 | Nc1ncccc1-c1nc2ccc(-c3ccccc3)nc2n1-c1ccc(C2CCN(C[C@H]3CC[C@H](C(=O)O)CC3)CC2)cc1 [Compound I-190]
< 20000 | ≥ 2000 | CC1(C)CC(CN2CCC(c3ccc(-n4c(-c5cccnc5N)nc5ccc(-c6ccccc6)nc54)cc3)CC2)CCC1C(=O)O (stereo not shown) [Compound I-193]
< 20000 | 500 to 2000 | CC1(C)CC(C(=O)O)CCC1CN1CCC(c2ccc(-n3c(-c4cccnc4N)nc4ccc(-c5ccccc5)nc43)cc2)CC1 (stereo not shown) [Compound I-194]
< 20000 | 500 to 2000 | Nc1ncccc1-c1nc2ccc(-c3ccccc3)nc2n1-c1ccc(C2CCN(CC34CCC(C(=O)O)(CC3)CC4)CC2)cc1 [Compound I-195]
< 20000 | ≥ 2000 | CC1(C)C[C@H](CN2CCC(c3ccc(-n4c(-c5cccnc5N)nc5ccc(-c6ccccc6)nc54)cc3)CC2)CC(C)(C)[C@H]1C(=O)O [Compound I-196]
< 20000 | ≥ 2000 | CC1(C)C[C@H](CN2CCC(c3ccc(-n4c(-c5cccnc5N)nc5ccc(-c6ccccc6)nc54)cc3)CC2)CC(C)(C)[C@@H]1C(=O)O [Compound I-197]
< 20000 | < 500 | Nc1ncccc1-c1nc2ccc(-c3ccccc3)nc2n1-c1ccc(C2CCN(C(=O)[C@H]3CC[C@H](C(=O)O)CC3)CC2)cc1 [Compound I-198]
< 20000 | < 500 | Nc1ncccc1-c1nc2ccc(-c3ccccc3)nc2n1-c1ccc(C2CCN(C(=O)[C@H]3CC[C@@H](C(=O)O)CC3)CC2)cc1 [Compound I-199]
< 20000 | 500 to 2000 | Cc1cc(C2CN(CC34CCC(C(=O)O)(CC3)CC4)C2)ccc1-n1c(-c2cccnc2N)nc2ccc(-c3ccccc3F)nc21 [Compound I-200]
< 20000 | < 500 | Cc1cc(C2CN(CC3CC4CC(C(=O)O)CC4C3)C2)ccc1-n1c(-c2cccnc2N)nc2ccc(-c3ccccc3F)nc21 (stereo not shown) [Compound I-201]
< 20000 | < 500 | Nc1ncccc1-c1nc2ccc(-c3ccccc3F)nc2n1-c1ccc(C2CN(CC3CC4CC(C(=O)O)CC4C3)C2)cc1 (stereo not shown) [Compound I-202]
< 20000 | < 500 | Nc1ncccc1-c1nc2ccc(-c3ccccc3F)nc2n1-c1ccc(C2CN(CC34CCC(C(=O)O)(CC3)CC4)C2)cc1 [Compound I-203]
< 20000 | < 500 | Cc1cc(C2CN(CC3CC4(C3)CC(C(=O)O)C4)C2)ccc1-n1c(-c2cccnc2N)nc2ccc(-c3ccccc3)nc21 (stereo not shown) [Compound I-204]
< 20000 | 500 to 2000 | Cc1cc(C2CN(C[C@H]3CC[C@@H](C(=O)O)CC3)C2)ccc1-n1c(-c2cccnc2N)nc2ccc(-c3ccccc3)nc21 [Compound I-205]
< 20000 | 500 to 2000 | Cc1cc(C2CN(CC34CCC(C(=O)O)(CC3)CC4)C2)ccc1-n1c(-c2cccnc2N)nc2ccc(-c3ccccc3)nc21 [Compound I-206]
< 20000 | 500 to 2000 | Cc1cc(C2CN(CC3CC4CC(C(=O)O)CC4C3)C2)ccc1-n1c(-c2cccnc2N)nc2ccc(-c3ccccc3)nc21 (stereo not shown) [Compound I-207]
< 20000 | 500 to 2000 | Nc1ncccc1-c1nc2ccc(-c3ccccc3)nc2n1-c1c(F)cc(C2CN(C[C@H]3CC[C@H](C(=O)O)CC3)C2)cc1F [Compound I-208]
< 20000 | 500 to 2000 | Cc1cc(C2CN(C[C@H]3CC[C@H](C(=O)O)CC3)C2)ccc1-n1c(-c2cccnc2N)nc2ccc(-c3ccccc3F)nc21 [Compound I-209]

IC50 [1] [nM] | IC50 [2] [nM] | SMILES
< 20000 | 500 to 2000 | Cc1cc(C2CN(C[C@H]3CC[C@@H](C(=O)O)CC3)C2)ccc1-n1c(-c2cccnc2N)nc2ccc(-c3ccccc3F)nc21 [Compound I-210]
< 20000 | ≥ 2000 | Cc1ccccc1-c1ccc2nc(-c3cccnc3N)n(-c3ccc(C4CN(C[C@H]5CC[C@H](C(=O)O)CC5)C4)cc3C)c2n1 [Compound I-211]
< 20000 | 500 to 2000 | Cc1ccccc1-c1ccc2nc(-c3cccnc3N)n(-c3ccc(C4CN(C[C@H]5CC[C@H](C(=O)O)CC5)C4)cc3)c2n1 [Compound I-212]
< 20000 | < 500 | Nc1ncccc1-c1nc2ccc(-c3ccccc3F)nc2n1-c1ccc(C2CN(C[C@H]3CC[C@H](C(=O)O)CC3)C2)cc1 [Compound I-213]
< 20000 | < 500 | Cc1nc(NC(=O)[C@H]2CC[C@H](C(=O)O)CC2)ccc1-n1c(-c2cccnc2N)nc2ccc(-c3cccc(F)c3)nc21 [Compound I-214]
< 20000 | 500 to 2000 | Cc1nc(NC(=O)[C@H]2CC[C@H](C(=O)O)CC2)ccc1-n1c(-c2cccnc2N)nc2ccc(-c3ccc(F)cc3)nc21 [Compound I-215]
< 20000 | ≥ 2000 | Cc1nc(NC(=O)[C@H]2CC[C@H](C(=O)O)CC2)ccc1-n1c(-c2cccnc2N)nc2ccc(-c3ccc(F)cc3F)nc21 [Compound I-216]
< 20000 | 500 to 2000 | Cc1nc(NC(=O)[C@H]2CC[C@H](C(=O)O)CC2)ccc1-n1c(-c2cccnc2N)nc2ccc(-c3c(F)cccc3F)nc21 [Compound I-217]
< 20000 | 500 to 2000 | Cc1nc(NC(=O)[C@H]2CC[C@H](C(=O)O)CC2)ccc1-n1c(-c2cccnc2N)nc2ccc(-c3ccccc3F)nc21 [Compound I-218]
< 20000 | 500 to 2000 | Cc1nc(NC(=O)[C@H]2CC[C@H](C(=O)O)CC2)ccc1-n1c(-c2cccnc2N)nc2ccc(-c3cccc(F)c3F)nc21 [Compound I-219]
< 20000 | 500 to 2000 | COc1ccccc1-c1ccc2nc(-c3cccnc3N)n(-c3ccc(NC(=O)[C@H]4CC[C@H](C(=O)O)CC4)nc3C)c2n1 [Compound I-220]
< 20000 | 500 to 2000 | Nc1ncccc1-c1nc2ccc(-c3ccccc3)cc2n1-c1ccc(C2CN(C[C@H]3CC[C@H](C(=O)O)CC3)C2)cc1 [Compound I-221, (1r,4r)-4-((3-(4-(2-(2-aminopyridin-3-yl)-6-phenyl-1H-benzo[d]imidazol-1-yl)phenyl)azetidin-1-yl)methyl)cyclohexane-1-carboxylic acid]
< 20000 | 500 to 2000 | Cc1cc(C2CN(C[C@H]3CC[C@@H](C(=O)O)CC3)C2)ccc1-n1c(-c2cccnc2N)nc2ccc(-c3ccccc3)cc21 [Compound I-222]
< 20000 | ≥ 2000 | Cc1cc(C2CN(C[C@H]3CC[C@H](C(=O)O)CC3)C2)ccc1-n1c(-c2cccnc2N)nc2ccc(-c3ccccc3)cc21 [Compound I-223]
< 20000 | ≥ 2000 | Cc1cc(C2CN(CC3CC4(C3)CC(C(=O)O)C4)C2)ccc1-n1c(-c2cccnc2N)nc2ccc(-c3ccccc3)cc21 (stereo not shown) [Compound I-224]
< 20000 | < 500 | Cc1nc(NCC2CC3(C2)CC(C(=O)O)C3)ccc1-n1c(-c2cccnc2N)nc2ccc(-c3ccccc3)nc21 (stereo not shown) [Compound I-225]
< 20000 | 500 to 2000 | Cc1nc(NC[C@@H]2CC[C@H](C(=O)O)C2)ccc1-n1c(-c2cccnc2N)nc2ccc(-c3ccccc3)nc21 [Compound I-226]
< 20000 | 500 to 2000 | Cc1nc(NC[C@@H]2CC[C@@H](C(=O)O)C2)ccc1-n1c(-c2cccnc2N)nc2ccc(-c3ccccc3)nc21 [Compound I-227]
< 20000 | < 500 | Cc1cc2nc(-c3cccnc3N)n(-c3ccc(C4CN(C[C@H]5CC[C@@H](C(=O)O)CC5)C4)cc3)c2nc1-c1ccccc1 [Compound I-234, Cis-4-((3-(4-(2-(2-aminopyridin-3-yl)-6-methyl-5-phenyl-3H-imidazo[4,5-b]pyridin-3-yl)phenyl)azetidin-1-yl)methyl)cyclohexane-1-carboxylic acid]
< 20000 | < 500 | Cc1cc2nc(-c3cccnc3N)n(-c3ccc(C4CN(C[C@H]5CC[C@H](C(=O)O)CC5)C4)cc3)c2nc1-c1ccccc1 [Compound I-235, trans-4-((3-(4-(2-(2-aminopyridin-3-yl)-6-methyl-5-phenyl-3H-imidazo[4,5-b]pyridin-3-yl)phenyl)azetidin-1-yl)methyl)cyclohexane-1-carboxylic acid]
